Assay [1] concerns the target T1, human NK2-receptor (Homo sapiens, UniProt P21452).
T1 sequence (P21452 1-398): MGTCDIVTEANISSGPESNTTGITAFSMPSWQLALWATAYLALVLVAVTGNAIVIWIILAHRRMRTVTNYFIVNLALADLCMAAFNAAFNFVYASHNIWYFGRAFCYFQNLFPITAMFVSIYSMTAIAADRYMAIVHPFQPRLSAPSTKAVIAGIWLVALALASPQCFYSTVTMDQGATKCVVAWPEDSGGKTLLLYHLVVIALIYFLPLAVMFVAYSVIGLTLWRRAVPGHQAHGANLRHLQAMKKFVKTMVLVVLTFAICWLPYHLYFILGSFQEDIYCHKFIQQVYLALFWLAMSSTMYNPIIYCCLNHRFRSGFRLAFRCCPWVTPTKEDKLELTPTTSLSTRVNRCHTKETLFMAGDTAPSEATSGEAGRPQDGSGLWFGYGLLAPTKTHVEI
Nature of the assay: Functional cellular test, Ca2+ measurements using FLIPR for NK2 activity.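 Further: CHO cells stably expressing the human receptor, loaded with a calcium dye, antagonist inhibition of ligand-evoked intracellular calcium rise read as peak fluorescence change on FLIPR.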
Procedure: Functional Cellular Tests of the NK1-, NK2- and NK3-Antagonism
Functional cellular tests of the antagonistic effect of the compounds of the present invention on the human tachykinin receptors were performed in CHO cells expressing the recombinant human NK1, NK2 or NK3-receptor. In these tests the inhibition of ligand-induced increase in mobilization of intracellular calcium and inhibition of ligand-induced phosphorylation of mitogen activated protein kinase (MAPK) were determined, which can be used as a measure of functional activity of tachykinin-antagonists. Additionally, the antagonistic properties of reference compounds on the different tachykinin receptors were characterized for comparison.
The effects of test compounds were assessed using Chinese hamster ovary (CHO) fibroblast cells, stably expressing cloned human NK1, NK2 or NK3-receptors. The NK receptor is coupled to Gq. The activation of the Gq protein by ligand binding to the receptor leads to a mobilization of intracellular calcium and phosphorylation of MAPK. Both systems were used to determine functional effects of the test compounds.
Ca^2+ Measurements Using FLIPR for NK1 and NK2 Activity
For tests, cells were seeded 24 hours prior to the experiment into black 96-well microplates. The cell density was 2.2×10^4 cells/well. All steps were done under sterile conditions. In order to observe changes in intracellular calcium levels, cells were loaded with a calcium-sensitive dye. This dye (FLUO-4, from Molecular Probes) excites at 488 nm, and emits in the 500 nm to 560 nm range, only if a complex with calcium is formed. For the dye loading the growth-medium was aspirated out of the well without disturbing the confluent cell layer and 100 μl loading medium (HBSS, 4 μM FLUO-4, 0.005% (w/v) pluronic acid, 2.5 mM probenecid, 20 mM HEPES, pH 7.4) was dispensed into each well using an automatic pipettor system (Multidrop, Labsystems). Pluronic acid was added to increase dye solubility and dye uptake into the cells, whereas probenecid, an anion exchange inhibitor, was added to the loading medium to increase dye retention in the cells. The cells were incubated in a 5% CO2 incubator at 37° C. for 40 minutes. After dye loading, the cells were washed three times with wash-buffer (HBSS, 2.5 mM probenecid, 20 mM HEPES, pH 7.4) to reduce basal fluorescence. In the last washing step the buffer was aspirated and replaced with 100 μl washing buffer. […] The FLIPR setup parameters were set to 0.4 sec exposure length, filter 1, 50 μl fluid addition, pipettor height at 125 μl, dispense speed 40 μl/sec without mixing. Maximal fluorescence changes were obtained using the statistic function of the FLIPR software, and data plotted using GraphPad Prism 4. All points were expressed as a percentage inhibition of the control agonist. IC50 values were determined using sigmoidal dose-response curve fitting. Antagonist potencies (pA2) values were calculated using equation: pA2=−log(IC50/(1+[L]/EC50)),

The target in assay [2] is T2, human NK1-receptor (Homo sapiens, UniProt P25103). Nature of the assay: Binding potency of the test substances to NK1-receptors in vitro ([3H]-Substance P displacement). The following applies: human NK1-receptor in CHO cell membranes, average of at least three measurements. As to the method: 1. Determination of the Binding Potency of the Test Substances to NK1-Receptors in Vitro
The affinity of test compounds for NK1-receptors can be determined by measuring the ability of the test compound to displace a radiolabeled ligand from its specific binding site. The tests were performed at Solvay Pharmaceuticals, Weesp, The Netherlands.
Separation of bound radioactivity from free radioactivity was done by filtration through glass fiber filters (Packard GF/B) with several washings with ice-cold buffer solution. Bound radioactivity was measured with a liquid scintillation counter (total binding).
The inhibition constant (Ki) was calculated according to the Cheng-Prusoff equation, and listed as its negative logarithmic value (pKi). The pKi value describes the potency of a test compound to bind to a receptor.

Assay [3] addresses T2, human NK1-receptor. Briefly: Functional cellular test, Ca2+ measurements using FLIPR for NK1 activity. The assay is classed as cell-based. Set-up: expressed in transfected cells; host or cells: CHO fibroblast cells. From the text: The NK receptor is coupled to Gq.
All steps were done under sterile conditions.

Assay [4] has as its target T1, human NK2-receptor. Briefly: Binding potency of the test substances to NK2-receptors in vitro ([3H]-SR 48968 displacement). Set-up: expressed in transfected cells; host or cells: CHO cells (membrane preparation). The following applies: human NK2-receptor in CHO cell membranes, [3H]-SR 48968 (saredutant); average of at least three measurements; read-out: pKi, binding potency to NK2-receptors (converted). The method in brief: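 Membranes from CHO cells stably expressing the receptor were incubated with [3H]-saredutant plus test compound, then filtered and counted by liquid scintillation. Nonspecific binding defined with 0.1 μmol/l unlabeled saredutant. IC50 from displacement converted to Ki via Cheng-Prusoff and reported as pKi, averaged over measurements.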

Assay [5] addresses T3, human NK3 receptor (Homo sapiens, UniProt P29371).
T3 sequence (P29371 1-465): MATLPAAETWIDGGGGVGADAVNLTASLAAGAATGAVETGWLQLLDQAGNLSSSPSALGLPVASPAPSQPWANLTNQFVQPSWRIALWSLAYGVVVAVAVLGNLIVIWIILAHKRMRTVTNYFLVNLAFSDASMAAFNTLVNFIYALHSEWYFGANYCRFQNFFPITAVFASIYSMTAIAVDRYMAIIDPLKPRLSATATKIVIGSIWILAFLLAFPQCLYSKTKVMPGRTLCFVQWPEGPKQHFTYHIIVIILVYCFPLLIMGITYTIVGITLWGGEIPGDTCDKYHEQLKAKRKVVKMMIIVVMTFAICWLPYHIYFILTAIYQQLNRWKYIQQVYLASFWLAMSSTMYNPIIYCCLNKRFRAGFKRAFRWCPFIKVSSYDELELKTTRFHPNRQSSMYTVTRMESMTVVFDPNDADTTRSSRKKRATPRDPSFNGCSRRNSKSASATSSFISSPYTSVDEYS
Nature of the assay: Functional cellular test, Ca2+ measurements using aequorin for NK3 activity. The assay is classed as cell-based. The following applies: read-out: pA2 data for NK3 (converted). Set-up: expressed in transfected cells; host or cells: cell line co-expressing mitochondrially targeted apoaequorin (CHO according to b76/b77).

For assay [6], the target named is T3, human NK3 receptor. Nature of the assay: Binding potency of the test substances to NK3-receptors in vitro ([3H]-SR 142801 displacement). The following applies: human NK3-receptor in CHO cell membranes, [3H]-SR 142801 (osanetant); average of at least three measurements; read-out: pKi, binding potency to NK3-receptors (converted). Set-up: expressed in transfected cells; host or cells: CHO cells (membrane preparation). The method in brief: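 [3H]-osanetant displacement on membranes from CHO cells stably expressing the human receptor, with bound ligand separated by filtration and counted by scintillation. Nonspecific binding defined with 1 μmol/l unlabeled osanetant. IC50 converted to Ki by Cheng-Prusoff and reported as pKi, averaged over measurements.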

[7] abbreviates: read-out: pKi, binding potency to NK1-receptors (converted).
Where [8] appears, read: read-out: pA2 data for NK1 (converted).
The mark [9] stands for this setting: pKi, binding potency to NK1-receptors.

Where two headings read alike, the source gives them in different places.

T2 sequence (P25103 whole entry): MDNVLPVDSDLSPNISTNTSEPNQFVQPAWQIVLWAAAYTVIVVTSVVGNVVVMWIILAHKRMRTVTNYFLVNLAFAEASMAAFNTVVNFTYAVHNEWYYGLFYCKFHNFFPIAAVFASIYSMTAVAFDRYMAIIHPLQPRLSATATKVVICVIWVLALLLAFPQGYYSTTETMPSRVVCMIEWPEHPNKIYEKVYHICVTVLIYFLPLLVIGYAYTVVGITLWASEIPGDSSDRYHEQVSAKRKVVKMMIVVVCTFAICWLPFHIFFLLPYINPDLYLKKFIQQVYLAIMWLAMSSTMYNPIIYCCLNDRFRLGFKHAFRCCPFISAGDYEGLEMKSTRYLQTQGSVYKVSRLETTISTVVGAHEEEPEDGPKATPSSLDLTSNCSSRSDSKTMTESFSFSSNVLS

In the case of `CN(C)C(=O)C1(N2CCCCC2)CCN(CCC(CN(C)C(=O)c2cc(Cl)ccc2F)c2ccc(Cl)c(Cl)c2)CC1` (stereo not shown) [compound 10], the results for the Kb in assay [1], in assay [3] (setting [8]) and in assay [5] were 3.98 nM, 79.4 nM and 5.01 nM, respectively. For the same compound, the Ki is 79.4 nM in assay [2] (setting [7]), 1.26 nM in assay [4] and 10 nM in assay [6].

In the case of `CN(C)C(=O)C1(N2CCCCC2)CCN(CCC(CN(C)C(=O)C2CCCC2)c2ccc(Cl)c(Cl)c2)CC1` (stereo not shown) [compound 23], the Kb is 1.26 nM in assay [1], 1.26 nM in assay [3] (setting [8]) and 12.6 nM in assay [5]. The Ki in assay [4] was 2 nM; in assay [6], 10 nM.

For the compound `CNC(=O)C1(N2CCCCC2)CCN(CCC(CN(C)C(=O)c2cc(C#N)cc3ccccc23)c2ccc(Cl)c(Cl)c2)CC1` (stereo not shown) [compound 93], the Kb in assay [1] is 3.98 nM; in assay [3] (setting [8]), 7.94 nM. For the same compound, the Ki in assay [2] (setting [7]) was 7.94 nM; in assay [4], 15.8 nM.

On to `CN(C)C(=O)C1(N2CCCC2)CCN(CCC(CN(C)C(=O)c2cc(C#N)cc3ccccc23)c2ccc(Cl)c(Cl)c2)CC1` (stereo not shown) [compound 98], for which the values for the Kb in assay [1] and in assay [3] (setting [8]) were 0.501 nM and 1.58 nM, respectively. Also, the Ki was 5.01 nM in assay [2] (setting [7]), 5.01 nM in assay [4] and 63.1 nM in assay [6].

Consider `CN(C)C(=O)C1(N2CCCC2)CCN(CC[C@H](CN(C)C(=O)c2ccccc2)c2ccc(Cl)c(Cl)c2)CC1` [compound 99, 1-[(3S)-4-[benzoyl(methyl)amino]-3-(3,4-dichlorophenyl)-butyl]-N,N-dimethyl-4-pyrrolidin-1-ylpiperidine-4-carboxamide], for which the Kb was 0.251 nM in assay [1] and 50.1 nM in assay [3] (setting [8]). In addition, the Ki was 0.631 nM in assay [4] and 63.1 nM in assay [6].

With `CN(C[C@@H](CCN1CCC(C(=O)N2CCCC2)(N2CCCC2)CC1)c1ccc(Cl)c(Cl)c1)C(=O)c1cc(C#N)cc2ccccc12` [compound 102, 3-cyano-N-{(2S)-2-(3,4-dichlorophenyl)-4-[4-pyrrolidin-1-yl-4-(pyrrolidin-1-ylcarbonyl)piperidin-1-yl]butyl}-N-methyl-1-naphthamide], the Kb in assay [1] was 39.8 nM; in assay [3] (setting [8]), 2 nM; in assay [5], 39.8 nM. In addition, the Ki in assay [2] (setting [7]) is 2 nM; in assay [4] it was 5.01 nM.

For the compound `CN(C[C@@H](CCN1CCC(C(=O)N2CCCC2)(N2CCCC2)CC1)c1ccc(Cl)c(Cl)c1)C(=O)c1ccccc1` [compound 103, N-{(2S)-2-(3,4-dichlorophenyl)-4-[4-pyrrolidin-1-yl-4-(pyrrolidin-1-ylcarbonyl)piperidin-1-yl]butyl}-N-methylbenzamide], the Kb is 2 nM in assay [1], 31.6 nM in assay [3] (setting [8]) and 50.1 nM in assay [5]. For the same compound, the Ki in assay [2] (setting [7]) was 50.1 nM; in assay [4], 2 nM.

As to `CN(C[C@@H](CCN1CCC(C(=O)N2CCCCC2)(N2CCCCC2)CC1)c1ccc(Cl)c(Cl)c1)C(=O)c1ccccc1` [compound 104, N-{(2S)-2-(3,4-dichlorophenyl)-4-[4′-(piperidin-1-ylcarbonyl)-1,4′-bipiperidin-1′-yl]butyl}-N-methylbenzamide], the Kb in assay [1] was 15.8 nM; in assay [3] (setting [8]), 20 nM; in assay [5], 15.8 nM. Further, the values for the Ki in assay [4] and in assay [6] were 2 nM and 20 nM, respectively.

`CCC(=O)N(CC1CC1)C1CCN(CC[C@H](CN(C)C(=O)c2ccccc2)c2ccc(Cl)c(Cl)c2)CC1` [compound 105, N-[(2S)-4-{4-[(cyclopropylmethyl)(Propionyl)-amino]piperidin-1-yl}-2-(3,4-dichlorophenyl)butyl]-N-methylbenzamide]: the Kb was 0.0794 nM in assay [1], 31.6 nM in assay [3] (setting [8]) and 100 nM in assay [5]. Moreover, the Ki is 25.1 nM in assay [2] (setting [7]) and 2 nM in assay [4].

`CCCCN(C(=O)CC)C1CCN(CC[C@H](CN(C)C(=O)c2ccccc2)c2ccc(Cl)c(Cl)c2)CC1` [compound 108, N-[(2S)-4-{4-[butyl(propionyl)amino]piperidin-1-yl}-2-(3,4-dichlorophenyl)butyl]-N-methylbenzamide]: the Kb in assay [1] was 1 nM; in assay [3] it was 31.6 nM. The Ki is 12.6 nM in assay [2] (setting [9]) and 3.98 nM in assay [4].

As to `CCC(=O)N(C1CCCCC1)C1CCN(CC[C@H](CN(C)C(=O)c2ccccc2)c2ccc(Cl)c(Cl)c2)CC1` [compound 116, N-[(2S)-4-{4-[cyclohexyl(propionyl)amino]piperidin-1-yl}-2-(3,4-dichlorophenyl)butyl]-N-methyl-benzamide], the results for the Kb in assay [1] and in assay [3] were 1.26 nM and 31.6 nM, respectively. Moreover, the Ki in assay [2] (setting [9]) was 79.4 nM; in assay [4], 5.01 nM.

Source of the values: US20070219214A1, “Dual NK2/NK3-antagonists, pharmaceutical compositions comprising them, and processes for their preparation” (Solvay pharmaceuticals GmbH, priority 2006, published 2007).
